Values after ≈ are worked out from the molar mass of the structure shown.
How the values were obtained:
[1] = molecular target: T1, cGMP-dependent protein kinase 1 (Homo sapiens, UniProt Q13976); experiment: Activation of basal state recombinant PKG1alpha (unknown origin) using Glass-tide peptide substrate incubated for 30 mins followed by ATP addition and measured after 2 hr by ADP-GLO Max Assay
T1 sequence (Q13976 whole entry): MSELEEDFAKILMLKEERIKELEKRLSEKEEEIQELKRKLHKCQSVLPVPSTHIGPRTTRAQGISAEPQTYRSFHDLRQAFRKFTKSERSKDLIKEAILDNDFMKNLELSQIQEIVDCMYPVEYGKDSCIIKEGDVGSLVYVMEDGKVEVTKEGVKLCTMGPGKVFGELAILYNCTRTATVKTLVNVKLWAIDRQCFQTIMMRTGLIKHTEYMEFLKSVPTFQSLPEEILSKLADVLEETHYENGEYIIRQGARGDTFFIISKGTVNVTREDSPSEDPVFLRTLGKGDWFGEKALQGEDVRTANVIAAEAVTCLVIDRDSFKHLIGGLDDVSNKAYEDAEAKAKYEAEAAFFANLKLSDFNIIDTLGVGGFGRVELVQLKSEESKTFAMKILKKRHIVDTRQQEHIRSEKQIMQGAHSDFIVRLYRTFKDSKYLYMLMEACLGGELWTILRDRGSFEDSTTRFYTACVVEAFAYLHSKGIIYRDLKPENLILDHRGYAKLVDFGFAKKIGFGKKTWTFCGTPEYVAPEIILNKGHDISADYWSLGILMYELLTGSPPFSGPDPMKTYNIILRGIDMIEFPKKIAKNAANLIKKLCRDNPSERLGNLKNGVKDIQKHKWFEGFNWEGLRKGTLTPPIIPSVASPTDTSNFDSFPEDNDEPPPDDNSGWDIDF

[2] = molecular target: T1, cGMP-dependent protein kinase 1; experiment: Activation of cGMP induced partially activated state recombinant PKG1alpha (unknown origin) using Glass-tide peptide substrate incubated for 30 mins followed by ATP addition and measured after 2 hr in presence of cGMP by ADP-GLO Max Assay
[3] = Solubility of compound at pH 2; format: physicochemical; settings: buffer
[4] = Oral bioavailability in Wistar Han male rat plasma at 5 mg/kg and measured upto 8 hrs by LC-MS/MS analysis; format: ADME, organism-based
[5] = Apparent permeability in dog MDCK-II cells; format: ADME, cell-based, Canis lupus familiaris
[6] = Clearance in Wistar Han male rat plasma at 1 mg/kg, iv or 5 mg/kg, po and measured upto 8 hrs post dose by LC-MS/MS analysis; format: ADME, organism-based
[7] = Protein binding in Wistar Han male rat plasma at 1 mg/kg, iv or 5 mg/kg, po and measured upto 8 hrs post dose by LC-MS/MS analysis; format: ADME, organism-based; settings: read-out: PPB
[8] = Volume of distribution in Wistar Han male rat plasma at 1 mg/kg, iv or 5 mg/kg, po and measured upto 8 hrs post dose by LC-MS/MS analysis; format: ADME, organism-based
[9] = Solubility of compound at pH 7; format: physicochemical; settings: buffer
[10] = Solubility of compound in FaSSIF; format: physicochemical
[11] = MRT in Wistar Han male rat plasma at 1 mg/kg, iv and measured upto 8 hrs post dose by LC-MS/MS analysis; format: ADME, organism-based
[12] = molecular target: T1, cGMP-dependent protein kinase 1
Description: Activation of PKG1alpha in human HEK293 cells stably expressing VASP assessed as VSAP phosphorylation at Ser 239 incubated for 45 mins by HTRF assay

[13] = MRT in Wistar Han male rat plasma at 0.05 mg/kg, iv and measured upto 8 hrs post dose by LC-MS/MS analysis; format: ADME, organism-based
[14] = Clearance in Wistar Han male rat plasma at 0.05 mg/kg, iv and measured upto 8 hrs post dose by LC-MS/MS analysis; format: ADME, organism-based
[15] = Protein binding in Wistar Han male rat plasma at 0.05 mg/kg, iv and measured upto 8 hrs post dose by LC-MS/MS analysis; format: ADME, organism-based; settings: read-out: PPB (converted)
[16] = Volume of distribution in Wistar Han male rat plasma at 0.05 mg/kg, iv and measured upto 8 hrs post dose by LC-MS/MS analysis; format: ADME, organism-based

Row | SMILES | EC50 [1] | EC50 [2] | further results
1 | O=C(O)C12CC(CN3CCC[C@H](O[C@H](CO)c4cc(Cl)cc(Cl)c4)[C@@H]3c3ccccc3)(C1)C2 | > 200 µM | 12 µM | –
2 | Cc1cc(C(=O)O)ccc1CN1CCC[C@H](O[C@H](CO)c2ccnc(Cl)c2)[C@@H]1c1ccccc1 | > 200 µM | 50 µM | –
3 | Cc1cc(C(=O)O)ccc1CN1CCC[C@H](OC(c2cc(Cl)cc(Cl)c2)C(C)(C)O)[C@@H]1c1ccccc1 (stereo not given in full) | 121 µM | 17 µM | –
4 | Cc1cc(C(=O)O)ccc1CN1C(C)CC[C@H](O[C@H](CO)c2cc(Cl)cc(Cl)c2)[C@@H]1c1ccccc1 (stereo not given in full) | 130 µM | 36 µM | –
5 | Cc1cc(C(=O)O)ccc1CN1CCC[C@H](O[C@H](CO)c2cc(Cl)cc(Cl)c2)[C@@H]1c1cccnc1 (racemic) | – | 47 µM | –
6 | Cc1cc(C(=O)O)ccc1CN1CCC[C@H](O[C@H](CO)c2cc(Cl)cc(Cl)c2)[C@@H]1c1ccc(F)cc1 | – | 18 µM | –
7 | Cc1cc(C(=O)O)ccc1CN1CCC[C@H](O[C@H](CO)c2cc(Cl)cc(Cl)c2)[C@@H]1c1ccccc1 | – | – | solubility [3]: 196 µM (≈ 101 µg/mL); bioavailability [4]: 62%; Papp [5]: 22 ×10⁻⁶ cm/s; clearance [6]: 2.5 mL/min/kg; fraction unbound at 8 h [7]: 0.001; Vd [8]: 0.33 L/kg; solubility [9]: 157 µM (≈ 80.8 µg/mL); solubility [10]: 36 µM (≈ 18.5 µg/mL); MRT [11]: 2.3 h
8 | Cc1cc(C(=O)O)ccc1CN1CCC[C@H](O[C@H](CO)c2ccccc2)[C@@H]1c1ccccc1 | > 200 µM | 25 µM | –
9 | CC(=O)NS(=O)(=O)c1ccc(CN2CCC[C@H](O[C@H](CO)c3cc(Cl)cc(Cl)c3)[C@@H]2c2ccccc2)cc1 | > 200 µM | 14 µM | –
10 | COc1cccc([C@@H](CO)O[C@H]2CCCN(Cc3ccc(C(=O)O)cc3C)[C@H]2c2ccccc2)c1 | > 200 µM | 81 µM | –
11 | OC[C@@H](O[C@H]1CCCN(Cc2ncc[nH]2)[C@H]1c1ccccc1)c1cc(Cl)cc(Cl)c1 | > 200 µM | 47 µM | Papp [5]: 2 ×10⁻⁶ cm/s; EC50 [12]: > 164 µM; solubility [9]: 120 µM (≈ 53.6 µg/mL)
12 | O=C(O)c1ccc(CN2CCC[C@H](O[C@H](CO)c3cc(Cl)cc(Cl)c3)[C@@H]2c2ccccc2)c([N+](=O)[O-])c1 | – | – | solubility [3]: 172 µM (≈ 93.8 µg/mL); MRT [13]: 0.9 h; Papp [5]: 10 ×10⁻⁶ cm/s; clearance [14]: 8.1 mL/min/kg; fraction unbound at 8 h [15]: < 0.001; solubility [9]: 110 µM (≈ 60 µg/mL); Vd [16]: 0.45 L/kg; solubility [10]: 112 µM (≈ 61.1 µg/mL)
13 | Cc1cc(C(=O)O)ccc1CN1CCC[C@H](O[C@H](CO)c2cc(Cl)cc(Cl)c2)[C@@H]1C1CCCCC1 | > 200 µM | 65 µM | –
14 | Nc1cc(C(=O)O)ccc1CN1CCC[C@H](O[C@H](CO)c2cc(Cl)cc(Cl)c2)[C@@H]1c1ccccc1 | – | – | solubility [3]: 126 µM (≈ 64.9 µg/mL); MRT [13]: 1.9 h; Papp [5]: 21 ×10⁻⁶ cm/s; clearance [14]: 4.4 mL/min/kg; fraction unbound at 8 h [15]: 0.002; solubility [9]: 78 µM (≈ 40.2 µg/mL); Vd [16]: 0.5 L/kg; solubility [10]: 137 µM (≈ 70.6 µg/mL)
15 | O=C(O)c1ccc(CN2CCC[C@H](O[C@H](CO)c3cc(Cl)cc(Cl)c3)[C@@H]2c2ccccc2)cc1 | 77 µM | – | solubility [9]: 85 µM (≈ 42.5 µg/mL)
16 | Cc1cc(C(=O)O)ccc1C(C)N1CCC[C@H](O[C@H](CO)c2cc(Cl)cc(Cl)c2)[C@@H]1c1ccccc1 (stereo not given in full) | – | 18 µM | –
17 | Cc1cc(C(=O)O)ccc1CN1CC[C@H](OC(CO)c2cc(Cl)cc(Cl)c2)[C@@H]1c1ccccc1 (stereo not given in full) | 185 µM | 133 µM | –
18 | Cc1cc(C(=O)O)ccc1CN1CCC[C@@]2(C[C@@H](c3ccccc3)CO2)[C@@H]1c1ccccc1 | > 200 µM | 43 µM | –
19 | Cc1cc(C(=O)O)ccc1C(=O)N1CCC[C@H](O[C@H](CO)c2cc(Cl)cc(Cl)c2)[C@@H]1c1ccccc1 | > 200 µM | > 200 µM | –
20 | Cc1cc(C(=O)O)ccc1CN1CCC[C@H](O[C@H](CO)c2cc(Cl)cc(Cl)c2)[C@@H]1c1cccc(F)c1 | – | 12 µM | –
21 | Cc1cc(C(=O)O)ccc1CN1C(=O)CC[C@H](OCc2cc(Cl)cc(Cl)c2)[C@@H]1c1ccccc1 | > 200 µM | 169 µM | –
